In patent US10294202B2, “Pyrrolidinones as herbicides” (FMC Corporation, priority 2013, dated 2019):

Tests used:
blackgrass [1] = test: Test C pre-/postemergence herbicide test; assay type: in vivo, Alopecurus myosuroides
Procedure, shortened: (§1)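 Herbicidal effect was judged by eye 13 to 15 days after treatment in the greenhouse, using a 0–100 scale against controls. Chemicals in a non-phytotoxic solvent with surfactant were sprayed onto planted loam/sand soil or onto plants 2 to 18 cm tall in a peat-based growing medium.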

galium = test: Test C pre-/postemergence herbicide test; assay type: in vivo, Galium aparine
Procedure, shortened: as §1

foxtail, giant = test: Test C pre-/postemergence herbicide test; assay type: in vivo, Setaria faberii
Procedure, shortened: as §1

kochia = test: Test C pre-/postemergence herbicide test; assay type: in vivo, Kochia scoparia
Procedure, shortened: as §1

velvetleaf = test: Test C pre-/postemergence herbicide test; assay type: in vivo, Abutilon theophrasti
Procedure, shortened: as §1

rice = test: Test C flooded paddy test; assay type: in vivo, Oryza sativa; conditions: Flood
Procedure, shortened: (§2)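 Visual injury scored against controls after 13 to 15 days in the greenhouse, using 0 (no effect) to 100 (complete control). Test compounds went straight into paddy water held 3 cm above the soil surface on 2-leaf-stage plants, with that flood depth maintained for the whole test.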

sedge, umbrella = test: Test C flooded paddy test; assay type: in vivo, Cyperus difformis; conditions: Flood
Procedure, shortened: as §2

blackgrass [2] = test: Test A postemergence herbicide test; assay type: in vivo, Alopecurus myosuroides
Procedure, shortened: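 Ratings compare treated with untreated plants roughly 10 days after a postemergence application made at the one- to two-leaf stage. Scoring uses 0–100, where 0 means no effect and 100 complete control.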

barnyardgrass = test: Test C pre-/postemergence herbicide test; assay type: in vivo, Echinochloa crus-galli
Procedure, shortened: as §1

[3] = Preemergence, 62 g ai/ha, scale 0 to 100
[4] = Preemergence, 125 g ai/ha, scale 0 to 100 (0 no effect, 100 complete control)
[5] = Preemergence, 31 g ai/ha, scale 0 to 100 (0 no effect, 100 complete control)
[6] = Preemergence, 250 g ai/ha, scale 0 to 100 (0 no effect, 100 complete control)
[7] = 62 g ai/ha, scale of 0 to 100 where 0 is no effect and 100 is complete control, 13 to 15 days
[8] = 125 g ai/ha, scale of 0 to 100 where 0 is no effect and 100 is complete control, 13 to 15 days
[9] = Postemergence, 31 g ai/ha, scale 0 (no effect) to 100 (complete control)
[10] = Postemergence, 62 g ai/ha, scale 0 to 100 (0 no effect, 100 complete control)
[11] = Postemergence, 125 g ai/ha, scale 0 to 100 (0 no effect, 100 complete control)
[12] = Postemergence, 250 g ai/ha, scale 0 to 100 (0 no effect, 100 complete control)
[13] = 31 g ai/ha, scale of 0 to 100 where 0 is no effect and 100 is complete control, 13 to 15 days
[14] = Postemergence, 31 g ai/ha, scale 0 to 100 (0 no effect, 100 complete control)
[15] = Postemergence, 62 g ai/ha, scale 0 (no effect) to 100 (complete control)
[16] = Preemergence, 31 g ai/ha, scale 0 to 100, 0 is no effect and 100 is complete control
[17] = Preemergence, 62 g ai/ha, scale 0 to 100 (0 no effect, 100 complete control)
[18] = Preemergence, 125 g ai/ha, scale 0 to 100

O=C1NCC(c2ccc(Cl)c(Cl)c2)C1C(=O)Nc1ccccc1F (racemic) [Compound 14]
Plant response rating, Blackgrass (blackgrass [1]; [3]): 0
Plant response rating, Blackgrass (blackgrass [1]; [4]): 0
Blackgrass plant response rating (blackgrass [1]; [5]): 0
Plant response rating, Blackgrass (blackgrass [1]; [6]): 0
Plant response rating, Galium (galium; [3]): 0
Plant response rating, Galium (galium; [4]): 70
Galium plant response rating (galium; [5]): 0
Plant response rating, Galium (galium; [6]): 85
Plant response rating, Foxtail, Giant (foxtail, giant; [3]): 85
Plant response rating, Foxtail, Giant (foxtail, giant; [4]): 90
Foxtail, Giant plant response rating (foxtail, giant; [5]): 85
Plant response rating, Foxtail, Giant (foxtail, giant; [6]): 95
Plant response rating, Kochia (kochia; [3]): 0
Plant response rating, Kochia (kochia; [4]): 0
Plant response rating, Velvetleaf (velvetleaf; [3]): 0
Plant response rating, Velvetleaf (velvetleaf; [4]): 0
Plant response rating, Rice (rice; [7]): 0
Plant response rating, Rice (rice; 250 g ai/ha, scale 0 to 100): 0
Plant response rating, Sedge, Umbrella (sedge, umbrella; [7]): 0
Plant response rating, Sedge, Umbrella (sedge, umbrella; 250 g ai/ha, scale 0 to 100): 20

O=C1NCCC1C(=O)N(c1ccc(F)c(F)c1)c1ccccc1F (stereo not drawn) [Compound 5, N-(3,4-difluorophenyl)-N-(2-fluorophenyl)-2-oxo-3-pyrrolidinecarboxamide]
Plant response rating, Blackgrass (blackgrass [1]; [3]): 0
Plant response rating, Blackgrass (blackgrass [1]; [4]): 0
Blackgrass plant response rating (blackgrass [1]; [5]): 0
Plant response rating, Blackgrass (blackgrass [1]; [6]): 30
Plant response rating, Galium (galium; [3]): 5
Galium plant response rating (galium; [5]): 0
Plant response rating, Galium (galium; [6]): 40
Plant response rating, Foxtail, Giant (foxtail, giant; [3]): 100
Plant response rating, Foxtail, Giant (foxtail, giant; [4]): 100
Foxtail, Giant plant response rating (foxtail, giant; [5]): 95
Plant response rating, Foxtail, Giant (foxtail, giant; [6]): 100
Plant response rating, Kochia (kochia; [3]): 0
Plant response rating, Kochia (kochia; [4]): 0
Plant response rating, Velvetleaf (velvetleaf; [3]): 0
Plant response rating, Velvetleaf (velvetleaf; [4]): 0
Plant response rating, Rice (rice; [7]): 0
Plant response rating, Rice (rice; [8]): 0
Plant response rating, Rice (rice; 250 g ai/ha, scale 0 to 100): 0
Plant response rating, Sedge, Umbrella (sedge, umbrella; [7]): 0
Plant response rating, Sedge, Umbrella (sedge, umbrella; [8]): 0
Plant response rating, Sedge, Umbrella (sedge, umbrella; 250 g ai/ha, scale 0 to 100): 0

O=C1NCC(c2ccc(F)c(F)c2)C1C(=O)Nc1cccc(F)c1F (stereo not drawn) [Compound 17, N-(2,3-difluorophenyl)-4-(3,4-difluorophenyl)-2-oxo-3-pyrrolidinecarboxamide]
Plant response rating, Blackgrass (blackgrass [1]; [9]): 0
Plant response rating, Blackgrass (blackgrass [1]; [10]): 0
Plant response rating, Blackgrass (blackgrass [1]; [11]): 0
Plant response rating, Blackgrass (blackgrass [1]; [12]): 0
Plant response rating, Blackgrass (blackgrass [1]; [3]): 50
Plant response rating, Blackgrass (blackgrass [1]; [4]): 80
Blackgrass plant response rating (blackgrass [1]; [5]): 5
Plant response rating, Blackgrass (blackgrass [1]; [6]): 95
Plant response rating, Galium (galium; [9]): 0
Plant response rating, Galium (galium; [10]): 0
Plant response rating, Galium (galium; [11]): 0
Plant response rating, Galium (galium; [12]): 0
Plant response rating, Galium (galium; [3]): 70
Plant response rating, Galium (galium; [4]): 70
Galium plant response rating (galium; [5]): 0
Plant response rating, Galium (galium; [6]): 90
Plant response rating, Foxtail, Giant (foxtail, giant; [9]): 0
Plant response rating, Foxtail, Giant (foxtail, giant; [10]): 0
Plant response rating, Foxtail, Giant (foxtail, giant; [11]): 0
Plant response rating, Foxtail, Giant (foxtail, giant; [12]): 10
Plant response rating, Foxtail, Giant (foxtail, giant; [3]): 95
Plant response rating, Foxtail, Giant (foxtail, giant; [4]): 100
Foxtail, Giant plant response rating (foxtail, giant; [5]): 90
Plant response rating, Foxtail, Giant (foxtail, giant; [6]): 100
Plant response rating, Kochia (kochia; [9]): 0
Plant response rating, Kochia (kochia; [10]): 0
Plant response rating, Kochia (kochia; [11]): 0
Plant response rating, Kochia (kochia; [12]): 5
Plant response rating, Kochia (kochia; [3]): 50
Plant response rating, Kochia (kochia; [4]): 60
Plant response rating, Velvetleaf (velvetleaf; [9]): 0
Plant response rating, Velvetleaf (velvetleaf; [10]): 0
Plant response rating, Velvetleaf (velvetleaf; [11]): 0
Plant response rating, Velvetleaf (velvetleaf; [12]): 0
Plant response rating, Velvetleaf (velvetleaf; [3]): 0
Plant response rating, Velvetleaf (velvetleaf; [4]): 0
Plant response rating, Rice (rice; [13]): 0
Plant response rating, Rice (rice; [7]): 0
Plant response rating, Rice (rice; [8]): 0
Plant response rating, Rice (rice; 250 g ai/ha, scale 0 to 100): 0
Plant response rating, Sedge, Umbrella (sedge, umbrella; [13]): 0
Plant response rating, Sedge, Umbrella (sedge, umbrella; [7]): 0
Plant response rating, Sedge, Umbrella (sedge, umbrella; [8]): 0
Plant response rating, Sedge, Umbrella (sedge, umbrella; 250 g ai/ha, scale 0 to 100): 40

O=C1NCC(c2cccc(Br)c2)C1C(=O)Nc1ccc(F)c(F)c1F (stereo not drawn) [Compound 310]
Plant response rating, Blackgrass (blackgrass [2]; 125 g ai/ha, visual rating on 0 to 100 scale (0 no effect, 100 complete control), approx. 10 days): 30
Plant response rating, Blackgrass (blackgrass [2]; 500 g ai/ha, 0 to 100 scale (0 no effect, 100 complete control)): 50
Plant response rating, Blackgrass (blackgrass [1]; [14]): 0
Plant response rating, Blackgrass (blackgrass [1]; [15]): 0
Plant response rating, Blackgrass (blackgrass [1]; [11]): 5
Plant response rating, Blackgrass (blackgrass [1]; [12]): 5
Blackgrass plant response rating (blackgrass [1]; [16]): 0
Blackgrass plant response rating (blackgrass [1]; [17]): 5
Plant response rating, Blackgrass (blackgrass [1]; [18]): 50
Plant response rating (scale of 0 to 100), Blackgrass (blackgrass [1]; Preemergence, 250 g ai/ha): 45
Plant response rating, Galium (galium; [14]): 35
Plant response rating, Galium (galium; [15]): 50
Plant response rating, Galium (galium; [11]): 50
Plant response rating, Galium (galium; [12]): 65
Galium plant response rating (galium; [16]): 0
Galium plant response rating (galium; [17]): 0
Plant response rating, Galium (galium; [18]): 0
Plant response rating (scale of 0 to 100), Galium (galium; Preemergence, 250 g ai/ha): 70
Plant response rating, Foxtail, Giant (foxtail, giant; [14]): 0
Plant response rating, Foxtail, Giant (foxtail, giant; [15]): 5
Plant response rating, Foxtail, Giant (foxtail, giant; [11]): 30
Plant response rating, Foxtail, Giant (foxtail, giant; [12]): 70
Foxtail, Giant plant response rating (foxtail, giant; [16]): 80
Foxtail, Giant plant response rating (foxtail, giant; [17]): 85
Plant response rating, Foxtail, Giant (foxtail, giant; [18]): 90
Plant response rating (scale of 0 to 100), Foxtail, Giant (foxtail, giant; Preemergence, 250 g ai/ha): 90
Plant response rating, Barnyardgrass (barnyardgrass; [14]): 5
Plant response rating, Barnyardgrass (barnyardgrass; [15]): 25
Plant response rating, Barnyardgrass (barnyardgrass; [11]): 50
Plant response rating, Barnyardgrass (barnyardgrass; [12]): 75
Barnyardgrass plant response rating (barnyardgrass; [16]): 50
Barnyardgrass plant response rating (barnyardgrass; [17]): 90
Plant response rating, Barnyardgrass (barnyardgrass; [4]): 90
Plant response rating (scale of 0 to 100; 0 is no effect, 100 is complete control), Barnyardgrass (barnyardgrass; Preemergence, 250 g ai/ha): 95
Plant response rating, Kochia (kochia; [14]): 40
Plant response rating, Kochia (kochia; [15]): 50
Plant response rating, Kochia (kochia; [12]): 80
Plant response rating, Velvetleaf (velvetleaf; [14]): 35
Plant response rating, Velvetleaf (velvetleaf; [15]): 0
Plant response rating, Velvetleaf (velvetleaf; [11]): 0
Plant response rating, Velvetleaf (velvetleaf; [12]): 40
Velvetleaf plant response rating (velvetleaf; [17]): 0
Plant response rating, Velvetleaf (velvetleaf; [18]): 5
Plant response rating (scale of 0 to 100), Velvetleaf (velvetleaf; Preemergence, 250 g ai/ha): 35
